According to patent EP4722228A1, “NEW COMPOUND TARGETING MUSK AND USE THEREOF” (The University of Tokyo, priority 2023, dated 2024):
Bridge positions count the residues as written; N and C are the ends. Square brackets hold non-standard residues; d marks the D form. Peptide text beside a SMILES is read from it. I, II: the chains in the order shown. * marks the point of attachment. Palmitoyl = CCCCCCCCCCCCCCCC(=O)*; PEG3 = NCCOCCOCCOCCC(=O)O; Dap = NC[C@H](N)C(=O)O

Legend:
Type in all cases: in vivo
[1] = system: rat PTMG model using anti-acetylcholine receptor monoclonal antibody (mAb35); experiment: Body weight change in rat PTMG model (myasthenia gravis model animals); conditions: 0 to 72 hr
Method: (§1) 5-week-old female rats (n=20, LEW/CrlCrlj, 4 weeks old when carried in, Jackson Laboratory Japan) were divided into four groups (Group A, Group B, Group C, and Group D) using body weight measurement results as indexes. Vehicle was administered to Group A, and the test compound MuSK7-pal dissolved in vehicle was administered intravenously to each of Group B (3 mg/kg), Group C (2 mg/kg), and Group D (1 mg/kg) (Day 0). Two hours after intravenous administration, an anti-nicotinic acetylcholine receptor monoclonal antibody (mAb35, National Hospital Organization Nagasaki Kawatana Medical Center) dissolved in PBS (pH 7.4) as a drug for inducing the pathology of myasthenia gravis was administered intraperitoneally to all animals at 200 µg/rat (Day 0). The vehicle, which was a solvent of the compound, was phosphate-buffered saline (PBS) at pH 7.4 containing 20% hydroxypropyl-β-cyclodextrin and 0.02% polysorbate 80 (the same applies to Example 3(2)).
Next, the body weight of the animals was measured before antibody administration (pre) and at 0, 9, 24, 33, 48, 57, and 72 hours (hr) after antibody administration. The movement, muscle strength, and grip strength of the animals were evaluated by the following tests.
as §1, with “(n=24,” for “(n=20,”, “(0.5” for “(3”, “(0.25” for “(2”, “(0.1” for “(1”, “0).” for “0). The vehicle, which was a solvent of the compound, was phosphate-buffered saline (PBS) at pH 7.4 containing 20% hydroxypropyl-β-cyclodextrin and 0.02% polysorbate 80 (the same applies to Example 3(2)).”
(§2) 5-week-old female rats (LEW/CrlCrlj, 4 weeks old when carried in, Jackson Laboratory Japan) were divided into three groups (Group A, Group B, and Group C) using body weight measurement results as indexes. The test compound (tetramer of Ub012 (EAAAK)3) dissolved in vehicle was administered intravenously to Group A (5 mg/kg) (n=5), the test compound (tetramer of Ub012(ΔGG) (EAAAK)3) dissolved in vehicle was administered intravenously to Group B (5 mg/kg) (n=5), and vehicle was administered intravenously to Group C (n=5), respectively (Day 0). Two hours after intravenous administration, an anti-nicotinic acetylcholine receptor monoclonal antibody (mAb35, National Hospital Organization Nagasaki Kawatana Medical Center) dissolved in PBS (pH 7.4) as a drug for inducing the pathology of myasthenia gravis was administered intraperitoneally to all animals at 200 µg/rat (Day 0).

[2] = system: rat PTMG model using anti-acetylcholine receptor monoclonal antibody (mAb35); experiment: Movement score in rat PTMG model
Method: as §1
The movement of the animals was evaluated at each time point of 9, 24, 33, 48, 57, and 72 hours (hr) after antibody administration according to six-level evaluation criteria (Score). The evaluation criteria were as follows. • 0: Normal • 1: Reduced grip strength in forelimbs and hindlimbs • 2: Incomplete paralysis of hindlimbs • 3: Complete paralysis of hindlimbs and inability to stand • 4: Moribund • 5: Death
The average score of the rats in each group was calculated. In addition, in a cage in which a rat determined to have a score of 2 or higher was present, crushed transport agar (manufactured by Oriental Yeast Co., Ltd.) and pellet feed were provided.
(§3) 5-week-old female rats (n=24, LEW/CrlCrlj, 4 weeks old when carried in, Jackson Laboratory Japan) were divided into four groups (Group A, Group B, Group C, and Group D) using body weight measurement results as indexes. Vehicle was administered to Group A, and the test compound MuSK7-pal dissolved in vehicle was administered intravenously to each of Group B (0.5 mg/kg), Group C (0.25 mg/kg), and Group D (0.1 mg/kg) (Day 0). Two hours after intravenous administration, an anti-nicotinic acetylcholine receptor monoclonal antibody (mAb35, National Hospital Organization Nagasaki Kawatana Medical Center) dissolved in PBS (pH 7.4) as a drug for inducing the pathology of myasthenia gravis was administered intraperitoneally to all animals at 200 µg/rat (Day 0).
The movement of the animals was evaluated at each time point of 9, 24, 33, 48, 57, and 72 hours (hr) after antibody administration according to six-level evaluation criteria (Score). The evaluation criteria were the same as those in (1) B above.
as §2
The movement of the animals was evaluated at each time point of 9, 24, 33, 48, 57, and 72 hours (hr) after antibody administration according to six-level evaluation criteria (Score). The evaluation criteria were the same as those in Example 3(1) B.

rat PTMG model = experiment: Rat PTMG myasthenia gravis model induced by anti-acetylcholine receptor monoclonal antibody (mAb35); conditions: 0-72 hr after antibody
Method: as §1
Next, the body weight of the animals was measured before antibody administration (pre) and at 0, 9, 24, 33, 48, 57, and 72 hours (hr) after antibody administration. The movement, muscle strength, and grip strength of the animals were evaluated by the following tests. […]
as §3
The movement of the animals was evaluated at each time point of 9, 24, 33, 48, 57, and 72 hours (hr) after antibody administration according to six-level evaluation criteria (Score). The evaluation criteria were the same as those in (1) B above. […]

[3] = system: rat PTMG model using anti-acetylcholine receptor monoclonal antibody (mAb35); experiment: Grip Strength Test in rat PTMG model; conditions: approx. 30 hours after antibody
Method: as §1
Approximately 30 hours after antibody administration, the muscle strength of the rats was measured using a mouse grip strength meter (GRIP STRENGTH METER FOR MICE, MODEL MK-380M, Muromachi Kikai Co., Ltd.). Specifically, the rats were left for 15 minutes or longer, and after confirming that they were in a resting state, the forelimbs of the rats were made to grasp the mouse grip strength meter. Next, the bodies of the rats were pulled, and the scale of the grip strength meter at the point when the rats released the wire mesh was read (first measurement). The above procedure was repeated once more (second measurement). When the difference between the first and second measurement values was 20% or less, the average value thereof was used as the measurement value. When the difference was 20% or more, the above procedure was further performed once more (third measurement), and the average value of two measurements with close values among the three measurements was used as the measurement value.
as §3
The Grip Strength Test was performed approximately 30 hours after antibody administration. The implementation procedure was the same as that in (1) B above.
as §2
The Grip Strength Test was performed approximately 30 hours after antibody administration. The implementation procedure was the same as that in Example 3(1) B.

CCCCCCCCCCCCCCCC(=O)NCCCC[C@H](NC(=O)[C@H](CNC(=O)CCOCCOCCOCCNC(=O)CNC(=O)[C@@H]1CSCC(=O)N[C@H](Cc2ccc(O)cc2)C(=O)N2CCC[C@H]2C(=O)N[C@@H](CO)C(=O)N[C@@H](Cc2ccc(O)cc2)C(=O)N[C@@H](Cc2c[nH]cn2)C(=O)N[C@@H]([C@@H](C)O)C(=O)N[C@@H](CC(N)=O)C(=O)N[C@@H](C(C)C)C(=O)N[C@@H](C(C)C)C(=O)N[C@@H](C)C(=O)N[C@@H](CO)C(=O)N[C@@H](CC(C)C)C(=O)N[C@@H](CCCCN)C(=O)N[C@@H](CCCNC(=N)N)C(=O)N1)NC(=O)CCOCCOCCOCCNC(=O)CNC(=O)[C@@H]1CSCC(=O)N[C@H](Cc2ccc(O)cc2)C(=O)N2CCC[C@H]2C(=O)N[C@@H](CO)C(=O)N[C@@H](Cc2ccc(O)cc2)C(=O)N[C@@H](Cc2c[nH]cn2)C(=O)N[C@@H]([C@@H](C)O)C(=O)N[C@@H](CC(N)=O)C(=O)N[C@@H](C(C)C)C(=O)N[C@@H](C(C)C)C(=O)N[C@@H](C)C(=O)N[C@@H](CO)C(=O)N[C@@H](CC(C)C)C(=O)N[C@@H](CCCCN)C(=O)N[C@@H](CCCNC(=N)N)C(=O)N1)C(N)=O [MuSK7-pal] (I: {CH2CO}-[dY]PSYHTNVVASLKRCG[PEG3][Dap]K(Palmitoyl)-NH2 / II: {CH2CO}-[dY]PSYHTNVVASLKRCG[PEG3]; amide I:18-II:C; thioether I:N-I:15, II:N-II:15)
body weight ([1]; 0.1 mg/kg intravenously 2 h before mAb35 (Group D, Example 3(2))): milder than that in Group A
body weight ([1]; 0.25 mg/kg intravenously 2 h before mAb35 (Group C, Example 3(2))): milder than that in Group A
body weight ([1]; 0.5 mg/kg intravenously 2 h before mAb35 (Group B, Example 3(2))): milder than that in Group A
body weight ([1]; 1 mg/kg intravenously 2 h before mAb35 (Group D, Example 3(1))): almost no significant decrease in body weight
body weight ([1]; 2 mg/kg intravenously 2 h before mAb35 (Group C, Example 3(1))): milder than that in Group A
body weight ([1]; 3 mg/kg intravenously 2 h before mAb35 (Group B, Example 3(1))): milder than that in Group A
movement score ([2]; 0.1 mg/kg intravenously (Group D, Example 3(2)), not significant vs Group A): the scores remained low compared to the control group
movement score ([2]; 0.25 mg/kg intravenously (Group C, Example 3(2)), Dunn's test): significantly lower than those in Group A at all measurement points except at 9 hr and at 57 hr
movement score ([2]; 0.5 mg/kg intravenously (Group B, Example 3(2)), Dunn's test): significantly lower than those in Group A at all measurement points after 24 hr
movement score ([2]; 1 mg/kg intravenously (Group D, Example 3(1)), all individuals, all measurement points, score 0-5): 0
movement score ([2]; 2 mg/kg intravenously (Group C, Example 3(1)), 9 to 72 hr, score 0-5): the scores remained low at all measurement points
movement score ([2]; 3 mg/kg intravenously (Group B, Example 3(1)), 9 to 72 hr, score 0-5): the scores remained low at all measurement points
body weight change (rat PTMG model; 0.1 mg/kg intravenous (Group D, low-dose study)): the degree of decrease in body weight was milder than that in Group A
body weight change (rat PTMG model; 0.25 mg/kg intravenous (Group C, low-dose study)): the degree of decrease in body weight was milder than that in Group A
body weight change (rat PTMG model; 0.5 mg/kg intravenous (Group B, low-dose study)): the degree of decrease in body weight was milder than that in Group A
body weight change (rat PTMG model; 2 mg/kg intravenous (Group C, high-dose study)): the degree of decrease in body weight was milder than that in Group A
body weight change (rat PTMG model; 3 mg/kg intravenous (Group B, high-dose study)): the degree of decrease in body weight was milder than that in Group A
grip strength ([3]; 0.1 mg/kg intravenously (Group D, Example 3(2))): 452 g
grip strength ([3]; 0.25 mg/kg intravenously (Group C, Example 3(2))): 476 g
grip strength ([3]; 0.5 mg/kg intravenously (Group B, Example 3(2))): 461 g
grip strength ([3]; 1 mg/kg intravenously (Group D, Example 3(1))): 577 g
grip strength ([3]; 2 mg/kg intravenously (Group C, Example 3(1))): 474 g
grip strength ([3]; 3 mg/kg intravenously (Group B, Example 3(1))): 467 g
